# Laboratory results taken from US20210387966A1, “2-AMINO-N-HETEROARYL-NICOTINAMIDES AS NAV1.8 INHIBITORS” (Merck Sharp & Dohme Corp., priority 2018, published 2021).
# Target: T1, human Nav1.8 channels (Homo sapiens, UniProt Q9Y5Y9)
# T1 construct: expressed in transfected cells
# Assay: Nav1.8 Qube automated patch-clamp assay
# Format: cell-based
# Conditions: human Nav1.8 stably expressed in HEK 293 cells; whole-cell voltage clamp, room temperature; resting or inactivated state not specified; read-out: IC50 values (nM) for Examples in the Nav1.8 Qube Assay
# Procedure, shortened: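 Whole-cell patch clamp at room temperature on HEK293 cells stably expressing human Nav1.8. A 1 Hz train of ten 20 ms pulses to 10 mV from −90 mV holding, with −67 mV repolarization, was applied; first- and tenth-pulse peak currents gave resting and inactivated-state IC50s by Hill fitting.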
# T1 sequence (Q9Y5Y9 whole entry): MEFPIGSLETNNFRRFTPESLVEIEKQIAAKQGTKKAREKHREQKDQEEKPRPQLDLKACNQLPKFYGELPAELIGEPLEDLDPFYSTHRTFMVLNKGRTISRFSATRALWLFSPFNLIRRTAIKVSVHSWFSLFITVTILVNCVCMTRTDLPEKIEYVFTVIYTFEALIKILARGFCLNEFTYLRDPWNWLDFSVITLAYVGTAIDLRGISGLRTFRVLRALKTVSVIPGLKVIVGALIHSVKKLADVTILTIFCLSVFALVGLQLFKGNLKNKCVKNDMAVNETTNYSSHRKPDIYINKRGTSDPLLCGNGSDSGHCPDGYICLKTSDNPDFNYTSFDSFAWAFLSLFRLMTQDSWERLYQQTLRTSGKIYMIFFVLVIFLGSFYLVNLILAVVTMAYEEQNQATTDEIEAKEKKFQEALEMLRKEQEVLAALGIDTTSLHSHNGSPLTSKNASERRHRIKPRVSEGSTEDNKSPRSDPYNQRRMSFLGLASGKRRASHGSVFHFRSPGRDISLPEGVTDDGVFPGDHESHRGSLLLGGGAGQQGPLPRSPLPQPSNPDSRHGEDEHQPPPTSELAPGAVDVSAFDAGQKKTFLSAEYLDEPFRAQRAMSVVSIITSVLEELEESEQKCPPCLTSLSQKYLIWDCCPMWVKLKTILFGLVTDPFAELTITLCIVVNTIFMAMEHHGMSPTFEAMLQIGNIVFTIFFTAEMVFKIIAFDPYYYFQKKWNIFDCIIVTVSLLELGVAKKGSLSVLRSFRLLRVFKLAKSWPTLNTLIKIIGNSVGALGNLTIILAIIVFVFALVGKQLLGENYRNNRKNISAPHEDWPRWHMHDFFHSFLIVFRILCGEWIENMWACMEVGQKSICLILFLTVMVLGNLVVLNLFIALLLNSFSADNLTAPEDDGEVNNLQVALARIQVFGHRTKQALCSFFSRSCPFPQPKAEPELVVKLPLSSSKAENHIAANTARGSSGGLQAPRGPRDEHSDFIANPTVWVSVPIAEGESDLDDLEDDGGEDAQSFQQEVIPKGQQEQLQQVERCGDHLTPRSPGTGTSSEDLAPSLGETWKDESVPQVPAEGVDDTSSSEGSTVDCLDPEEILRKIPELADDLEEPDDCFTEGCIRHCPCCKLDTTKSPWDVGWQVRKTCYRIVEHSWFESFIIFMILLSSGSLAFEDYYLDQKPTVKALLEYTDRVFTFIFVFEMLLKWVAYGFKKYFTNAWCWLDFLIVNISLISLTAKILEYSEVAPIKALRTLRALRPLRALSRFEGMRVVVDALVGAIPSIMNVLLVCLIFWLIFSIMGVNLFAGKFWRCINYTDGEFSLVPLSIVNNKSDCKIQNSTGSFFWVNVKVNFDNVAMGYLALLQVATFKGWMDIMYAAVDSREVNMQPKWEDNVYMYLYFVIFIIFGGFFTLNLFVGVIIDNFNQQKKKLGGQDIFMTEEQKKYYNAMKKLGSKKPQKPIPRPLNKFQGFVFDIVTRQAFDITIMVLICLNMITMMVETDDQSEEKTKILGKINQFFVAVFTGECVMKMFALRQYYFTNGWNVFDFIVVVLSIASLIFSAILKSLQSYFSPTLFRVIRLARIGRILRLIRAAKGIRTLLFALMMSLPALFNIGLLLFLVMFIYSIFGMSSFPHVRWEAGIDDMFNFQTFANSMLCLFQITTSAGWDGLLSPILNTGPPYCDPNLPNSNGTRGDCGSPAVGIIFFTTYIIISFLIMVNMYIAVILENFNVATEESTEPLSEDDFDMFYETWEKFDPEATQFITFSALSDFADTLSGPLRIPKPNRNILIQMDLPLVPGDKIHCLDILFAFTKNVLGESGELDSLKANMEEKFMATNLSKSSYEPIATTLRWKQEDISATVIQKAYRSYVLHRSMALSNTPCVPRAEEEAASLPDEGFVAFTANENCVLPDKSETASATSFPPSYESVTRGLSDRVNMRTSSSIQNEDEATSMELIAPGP
row,SMILES,IC50 [nM]
1,"NS(=O)(=O)c1cc(NC(=O)c2cc(C(F)(F)F)cnc2N2C[C@H]3CC[C@@H](C2)C3(F)F)ccn1 [Example 63, 2-((1R,5S)-8,8-difluoro-3-azabicyclo[3.2.1]octan-3-yl)-N-(2-sulfamoylpyridin-4-yl)-5-(trifluoromethyl)nicotinamide]",20
2,"Cc1nc(N2CCC(F)(F)C(C)C2)c(C(=O)Nc2ccnc(S(N)(=O)=O)c2)cc1Cl (single isomer, unassigned) [Example 55, (S or R)-5-chloro-2-(4,4-difluoro-3-methylpiperidin-1-yl)-6-methyl-N-(2-sulfamoylpyridin-4-yl)nicotinamide]",1.4
3,"NS(=O)(=O)c1cc(NC(=O)c2cc(C(F)(F)F)cnc2N2Cc3cccc(OC(F)(F)F)c3C2)ccn1 [Example 90, N-(2-sulfamoyl-4-pyridyl)-2-[4-(trifluoromethoxy)isoindolin-2-yl]-5-(trifluoromethyl)pyridine-3-carboxamide]",294
4,"Cc1ncc(C(=O)Nc2ccnc(S(N)(=O)=O)c2)c(N2CCCC(F)(F)CC2)n1 [Example 173, 4-(4,4-difluoroazepan-1-yl)-2-methyl-N-(2-sulfamoylpyridin-4-yl)pyrimidine-5-carboxamide]",199
5,"NS(=O)(=O)c1cc(NC(=O)c2cc(C(F)(F)F)cnc2N2CCC(F)(F)CC2)ccn1 [Example 175, 2-(4,4-difluoropiperidin-1-yl)-N-(2-sulfamoylpyridin-4-yl)-5-(trifluoromethyl) nicotinamide]",53
6,"NS(=O)(=O)c1cc(NC(=O)c2cc(C(F)(F)F)cnc2N2CCC3C(C2)C3(F)F)ccn1 (single isomer, unassigned) [Example 69, 2-((1S,6S or 1R,6R)-7,7-difluoro-3-azabicyclo[4.1.0]heptan-3-yl)-N-(2-sulfamoylpyridin-4-yl)-5-(trifluoromethyl)nicotinamide]",82
7,"NS(=O)(=O)c1cc(NC(=O)c2cc(-n3cccn3)cnc2N2CCC(F)(F)CC2)ccn1 [Example 207, 2-(4,4-difluoropiperidin-1-yl)-5-(1H-pyrazol-1-yl)-N-(2-sulfamoylpyridin-4-yl)nicotinamide]",1080
8,"Cc1nc(N2CCOC(C(F)F)C2)c(C(=O)Nc2ccnc(S(N)(=O)=O)c2)cc1Cl (single isomer, unassigned) [Example 124, (S or R)-5-chloro-2-(2-(difluoromethyl)morpholino)-6-methyl-N-(2-sulfamoylpyridin-4-yl)nicotinamide]",50
9,"NS(=O)(=O)c1cc(NC(=O)c2cc(C(F)(F)F)cnc2N2CC(C(F)(F)F)C2)ccn1 [Example 93, N-(2-sulfamoyl-4-pyridyl)-5-(trifluoromethyl)-2-[3-(trifluoromethyl)azetidin-1-yl]pyridine-3-carboxamide]",707
10,"NS(=O)(=O)c1cc(NC(=O)c2cc(C(F)(F)F)cnc2N2CCN(CC3CC3)C(=O)C2)ccn1 [Example 99, 2-[4-(cyclopropylmethyl)-3-oxo-piperazin-1-yl]-N-(2-sulfamoyl-4-pyridyl)-5-(trifluoromethyl)pyridine-3-carboxamide]",2560
11,"CC1CCCN(c2ncc(C(F)(F)F)cc2C(=O)Nc2ccnc(S(N)(=O)=O)c2)C1 (single isomer, unassigned) [Example 57, (R or S)-2-(3-methylpiperidin-1-yl)-N-(2-sulfamoylpyridin-4-yl)-5-(trifluoromethyl)nicotinamide]",31
12,"CC(C)(C)NS(=O)(=O)c1cc(NC(=O)c2cc(Cl)cnc2N2CCCC(F)(F)CC2)ccn1 [Example 109, N-[2-(tert-butylsulfamoyl)-4-pyridyl]-5-chloro-2-(4,4-difluoroazepan-1-yl)pyridine-3-carboxamide]",289
13,"CS(=O)(=O)n1ncc(NC(=O)c2cc(C(F)(F)F)cnc2N2CCCC(F)(F)CC2)c1C1CC1 [Example 37, N-[5-cyclopropyl-1-(methylsulfonyl)-1H-pyrazol-4-yl]-2-(4,4-difluoroazepan-1-yl)-5-(trifluoromethyl)pyridin-3-carboxamide]",1250
14,"NS(=O)(=O)c1cc(NC(=O)c2cc(C3CC3)c(OC(F)(F)F)nc2N2CCC(F)(F)CC2)ccn1 [Example 182, 5-cyclopropyl-2-(4,4-difluoropiperidin-1-yl)-N-(2-sulfamoylpyridin-4-yl)-6-(trifluoromethoxy)nicotinamide]",62
15,"CC1CN(c2ncc(C(F)(F)F)cc2C(=O)Nc2ccnc(S(N)(=O)=O)c2)CCC1(Cl)Cl (single isomer, unassigned) [Example 49, (R or S)-2-(4,4-dichloro-3-methylpiperidin-1-yl)-N-(2-sulfamoylpyridin-4-yl)-5-(trifluoromethy)nicotinamide]",1.4
16,"NS(=O)(=O)c1cc(NC(=O)c2cc(C3CC3)nnc2N2CCCC(F)(F)CC2)ccn1 [Example 39, 6-cyclopropyl-3-(4,4-difluoroazepan-1-yl)-N-(2-sulfamoylpyridin-4-yl)pyridazine-4-carboxamide]",441
17,"CS(=O)(=O)c1cncc(NC(=O)c2cc(C(F)(F)F)cnc2N2CCCCCC2)c1 [Example 6, 2-(azepan-1-yl)-N-(5-(methylsulfonyl)pyridin-3-yl)-5-(trifluoromethyl)nicotinamide]",355
18,"Cc1cncc(NC(=O)c2cc(C(F)(F)F)cnc2N2CCCCCC2)c1 [Example 195, 2-(azepan-1-yl)-N-(5-methyl-3-pyridyl)-5-(tri-fluoromethyl)-pyridine-3-carboxamide]",2770
19,"Cc1nc(N2CCCC(F)(F)CC2)c(C(=O)Nc2cnn(S(C)(=O)=O)c2)c(C)c1Cl [Example 32, 5-chloro-2-(4,4-difluoroazepan-1-yl)-4,6-dimethyl-N-[1-(methylsulfonyl)-1H-pyrazol-4-yl]pyridine-3-carboxamide]",4.3
20,"NS(=O)(=O)c1cc(NC(=O)c2cc(C(F)(F)F)nnc2N2CCCC(F)(F)CC2)ccn1 [Example 179, 3-(4,4-difluoroazepan-1-yl)-N-(2-sulfamoylpyridin-4-yl)-6-(trifluoromethyl)pyridazine-4-carboxamide]",102
21,"NS(=O)(=O)c1cc(NC(=O)c2cc(C(F)(F)F)cnc2N2CCCC(C(F)(F)F)C2)ccn1 (stereo not drawn) [Example 80, N-(2-sulfamoyl-4-pyridyl)-5-(trifluoromethyl)-2-[3-(trifluoromethyl)-1-piperidyl]pyridine-3-carboxamide]",31
